Test results from ChEMBL document CHEMBL1201862, “PubChem BioAssay data set” (2004).
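A five-concentration, 48-hour dose response in 96-well plates underlies each endpoint, interpolated linearly between surrounding concentrations. The concentration for 50% growth inhibition is given as GI50.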 The source made the active and inactive calls. No stated cut-off is given here; in the data, active = GI50 up to about 1.1 µM and inactive = higher.

Key:
Assay in all cases: growth of human tumour cells (NCI), 48 h
786-0 = tested on: 786-0
A498 = tested on: A498
A549 = tested on: A549
ACHN = tested on: ACHN
CAKI-1 = tested on: CAKI-1
COLO 205 = tested on: COLO 205
DLD-1 = tested on: DLD-1
DMS-273 = tested on: DMS-273
EKVX = tested on: EKVX
HCC 2998 = tested on: HCC 2998
HCT-116 = tested on: HCT-116
HCT-15 = tested on: HCT-15
HOP-18 = tested on: HOP-18
HOP-62 = tested on: HOP-62
HOP-92 = tested on: HOP-92
HT-29 = tested on: HT-29
IGROV-1 = tested on: IGROV-1
KM-20L2 = tested on: KM-20L2
KM12 = tested on: KM12
LOX IMVI = tested on: LOX IMVI
LXFL 529 = tested on: LXFL 529
M14 = tested on: M14
M19-MEL = tested on: M19-MEL
MOLT-4 = tested on: MOLT-4
Malme-3M = tested on: Malme-3M
NCI-H226 = tested on: NCI-H226
NCI-H23 = tested on: NCI-H23
NCI-H460 = tested on: NCI-H460
OVCAR-3 = tested on: OVCAR-3
OVCAR-4 = tested on: OVCAR-4
OVCAR-5 = tested on: OVCAR-5
OVCAR-8 = tested on: OVCAR-8
RPMI-8226 = tested on: RPMI-8226
RXF 631 = tested on: RXF 631
SF-268 = tested on: SF-268
SF-295 = tested on: SF-295
SF-539 = tested on: SF-539
SK-MEL-28 = tested on: SK-MEL-28
SK-MEL-2 = tested on: SK-MEL-2
SK-MEL-5 = tested on: SK-MEL-5
SK-OV-3 = tested on: SK-OV-3
SN12C = tested on: SN12C
SNB-19 = tested on: SNB-19
SNB-75 = tested on: SNB-75
SR = tested on: SR
SW-620 = tested on: SW-620
TK-10 = tested on: TK-10
U-251 = tested on: U-251
UACC-257 = tested on: UACC-257
UACC-62 = tested on: UACC-62
UO-31 = tested on: UO-31
XF498 = tested on: XF498
CCRF-CEM = tested on: CCRF-CEM
HL-60 = tested on: HL-60
K562 = tested on: K562
NCI-H522 = tested on: NCI-H522
RXF 393 = tested on: RXF 393
SNB-78 = tested on: SNB-78
DMS-114 = tested on: DMS-114

COc1ccccc1NC(=O)C1=C(C)NC(C)=C(C(=O)Nc2ccccc2OC)C1c1ccc(C(C)C)cc1
GI50 (786-0): > 100 µM (inactive) | GI50 (A498): > 100 µM (inactive) | GI50 (A549): 40.1 µM (inactive) | GI50 (ACHN): 65.9 µM (inactive) | GI50 (CAKI-1): > 100 µM (inactive) | GI50 (COLO 205): > 100 µM (inactive) | GI50 (DLD-1): > 100 µM (inactive) | GI50 (DMS-273): 59.7 µM (inactive) | GI50 (EKVX): 33 µM (inactive) | GI50 (HCC 2998): 63.7 µM (inactive) | GI50 (HCT-116): 13.8 µM (inactive) | GI50 (HCT-15): > 100 µM | GI50 (HOP-18): > 100 µM (inactive) | GI50 (HOP-62): > 100 µM (inactive) | GI50 (HOP-92): 82.4 µM (inactive) | GI50 (HT-29): > 100 µM (inactive) | GI50 (IGROV-1): > 100 µM (inactive) | GI50 (KM-20L2): 48.4 µM (inactive) | GI50 (KM12): 55.6 µM (inactive) | GI50 (LOX IMVI): > 100 µM (inactive) | GI50 (LXFL 529): > 100 µM (inactive) | GI50 (M14): > 100 µM (inactive) | GI50 (M19-MEL): > 100 µM (inactive) | GI50 (MOLT-4): 9.18 µM (inactive) | GI50 (Malme-3M): 67.6 µM (inactive) | GI50 (NCI-H226): > 100 µM (inactive) | GI50 (NCI-H23): > 100 µM (inactive) | GI50 (NCI-H460): 61.1 µM (inactive) | GI50 (OVCAR-3): > 100 µM (inactive) | GI50 (OVCAR-4): 16.8 µM (inactive) | GI50 (OVCAR-5): > 100 µM (inactive) | GI50 (OVCAR-8): > 100 µM (inactive) | GI50 (RPMI-8226): 7.38 µM (inactive) | GI50 (RXF 631): > 100 µM (inactive) | GI50 (SF-268): > 100 µM (inactive) | GI50 (SF-295): > 100 µM (inactive) | GI50 (SF-539): > 100 µM (inactive) | GI50 (SK-MEL-28): 80.5 µM (inactive) | GI50 (SK-MEL-2): > 100 µM (inactive) | GI50 (SK-MEL-5): 38.9 µM (inactive) | GI50 (SK-OV-3): > 100 µM (inactive) | GI50 (SN12C): > 100 µM (inactive) | GI50 (SNB-19): > 100 µM (inactive) | GI50 (SNB-75): 27 µM (inactive) | GI50 (SR): 15.5 µM (inactive) | GI50 (SW-620): > 100 µM (inactive) | GI50 (TK-10): > 100 µM (inactive) | GI50 (U-251): 84.3 µM (inactive) | GI50 (UACC-257): 45.2 µM (inactive) | GI50 (UACC-62): > 100 µM (inactive) | GI50 (UO-31): 29 µM (inactive) | GI50 (XF498): 18.6 µM (inactive)

O=[N+]([O-])c1ccc(C2N3CCCCC3[C@H]3CCCCN23)cc1 (some centres undefined)
GI50 (786-0): > 100 µM (inactive) | GI50 (A498): > 100 µM (inactive) | GI50 (A549): > 100 µM (inactive) | GI50 (ACHN): > 100 µM (inactive) | GI50 (CAKI-1): > 100 µM (inactive) | GI50 (CCRF-CEM): > 100 µM (inactive) | GI50 (COLO 205): > 100 µM (inactive) | GI50 (DLD-1): > 100 µM (inactive) | GI50 (DMS-273): > 100 µM (inactive) | GI50 (EKVX): > 100 µM (inactive) | GI50 (HCT-116): > 100 µM (inactive) | GI50 (HCT-15): > 100 µM | GI50 (HL-60): > 100 µM (inactive) | GI50 (HOP-18): > 100 µM (inactive) | GI50 (HOP-62): > 100 µM (inactive) | GI50 (HOP-92): > 100 µM (inactive) | GI50 (HT-29): > 100 µM (inactive) | GI50 (IGROV-1): > 100 µM (inactive) | GI50 (K562): > 100 µM (inactive) | GI50 (KM-20L2): > 100 µM (inactive) | GI50 (KM12): > 100 µM (inactive) | GI50 (LOX IMVI): > 100 µM (inactive) | GI50 (LXFL 529): > 100 µM (inactive) | GI50 (M14): > 100 µM (inactive) | GI50 (M19-MEL): > 100 µM (inactive) | GI50 (MOLT-4): > 100 µM (inactive) | GI50 (Malme-3M): > 100 µM (inactive) | GI50 (NCI-H226): > 100 µM (inactive) | GI50 (NCI-H23): > 100 µM (inactive) | GI50 (NCI-H460): > 100 µM (inactive) | GI50 (NCI-H522): > 100 µM (inactive) | GI50 (OVCAR-3): > 100 µM (inactive) | GI50 (OVCAR-4): > 100 µM (inactive) | GI50 (OVCAR-5): > 100 µM (inactive) | GI50 (OVCAR-8): > 100 µM (inactive) | GI50 (RPMI-8226): > 100 µM (inactive) | GI50 (RXF 393): > 100 µM (inactive) | GI50 (RXF 631): > 100 µM (inactive) | GI50 (SF-268): > 100 µM (inactive) | GI50 (SF-295): > 100 µM (inactive) | GI50 (SF-539): > 100 µM (inactive) | GI50 (SK-MEL-28): > 100 µM (inactive) | GI50 (SK-MEL-2): > 100 µM (inactive) | GI50 (SK-MEL-5): > 100 µM (inactive) | GI50 (SK-OV-3): > 100 µM (inactive) | GI50 (SN12C): > 100 µM (inactive) | GI50 (SNB-19): > 100 µM (inactive) | GI50 (SNB-75): > 100 µM (inactive) | GI50 (SNB-78): > 100 µM (inactive) | GI50 (SR): > 100 µM (inactive) | GI50 (SW-620): > 100 µM (inactive) | GI50 (TK-10): > 100 µM (inactive) | GI50 (U-251): > 100 µM (inactive) | GI50 (UACC-257): > 100 µM (inactive) | GI50 (UACC-62): > 100 µM (inactive) | GI50 (UO-31): > 100 µM (inactive) | GI50 (XF498): > 100 µM (inactive)

CC(=O)NC1C(O)CC(OCCCSCCN)(C(=O)O)OC1C(O)C(O)CO (centres undefined)
GI50 (A498): > 100 µM (inactive) | GI50 (A549): > 100 µM (inactive) | GI50 (ACHN): > 100 µM (inactive) | GI50 (CAKI-1): > 100 µM (inactive) | GI50 (CCRF-CEM): > 100 µM (inactive) | GI50 (COLO 205): > 100 µM (inactive) | GI50 (DLD-1): > 100 µM (inactive) | GI50 (DMS-114): > 100 µM (inactive) | GI50 (DMS-273): > 100 µM (inactive) | GI50 (EKVX): > 100 µM (inactive) | GI50 (HCC 2998): > 100 µM (inactive) | GI50 (HCT-116): > 100 µM (inactive) | GI50 (HCT-15): > 100 µM | GI50 (HL-60): > 100 µM (inactive) | GI50 (HOP-18): > 100 µM (inactive) | GI50 (HOP-92): > 100 µM (inactive) | GI50 (HT-29): > 100 µM (inactive) | GI50 (IGROV-1): > 100 µM (inactive) | GI50 (KM-20L2): > 100 µM (inactive) | GI50 (KM12): > 100 µM (inactive) | GI50 (LOX IMVI): > 100 µM (inactive) | GI50 (LXFL 529): > 100 µM (inactive) | GI50 (M14): > 100 µM (inactive) | GI50 (MOLT-4): > 100 µM (inactive) | GI50 (Malme-3M): > 100 µM (inactive) | GI50 (NCI-H226): > 100 µM (inactive) | GI50 (NCI-H23): > 100 µM (inactive) | GI50 (NCI-H460): > 100 µM (inactive) | GI50 (OVCAR-4): > 100 µM (inactive) | GI50 (OVCAR-5): > 100 µM (inactive) | GI50 (OVCAR-8): > 100 µM (inactive) | GI50 (RPMI-8226): > 100 µM (inactive) | GI50 (RXF 393): > 100 µM (inactive) | GI50 (RXF 631): > 100 µM (inactive) | GI50 (SF-268): > 100 µM (inactive) | GI50 (SF-295): > 100 µM (inactive) | GI50 (SF-539): > 100 µM (inactive) | GI50 (SK-MEL-28): > 100 µM (inactive) | GI50 (SK-MEL-2): > 100 µM (inactive) | GI50 (SK-MEL-5): > 100 µM (inactive) | GI50 (SN12C): > 100 µM (inactive) | GI50 (SNB-19): > 100 µM (inactive) | GI50 (SNB-75): > 100 µM (inactive) | GI50 (SNB-78): > 100 µM (inactive) | GI50 (SR): > 100 µM (inactive) | GI50 (SW-620): > 100 µM (inactive) | GI50 (TK-10): > 100 µM (inactive) | GI50 (U-251): > 100 µM (inactive) | GI50 (UACC-257): > 100 µM (inactive) | GI50 (XF498): > 100 µM (inactive)
